In PMC6722498, “Non-CYP2D6 Variants Selected by a GWAS Improve the Prediction of Impaired Tamoxifen Metabolism in Patients with Breast Cancer” (Journal of Clinical Medicine, 2019):
Several values for one entry are separate records, joined by “and”; a condition that tells them apart may be missing. Equal entries are not always repeated. Where two headings read alike, the source gives them in different places. Values belong to the compound of their own block, whether it stands above or below them.

What was measured:
[1] = test system: estrogen receptor (ER); design: method as in PMID 15111773, PMID 16690721, PMID 21451508; conditions: fold higher; cited from earlier work
[2] = design: method as in PMID 26232141; conditions: simple linear regression; corresponds to predefined 6 ng mL^−1 (Z)-endoxifen threshold; cited from earlier work
[3] = design: method as in PMID 26232141; conditions: Polish women with fully active CYP2D6 (NM/NM); tamoxifen 20 mg daily; cited from earlier work
[4] = Steady-state plasma concentration of (Z)-endoxifen (UPLC-MS/MS) in tamoxifen-treated breast cancer patients; type: in vivo, human; conditions: tamoxifen 20 mg daily
Text: (§1) Between May 2012 and June 2014, 293 patients were recruited for a study of CYP2D6 genotype association with plasma concentrations of tamoxifen and its metabolites. Details of the inclusion criteria, study protocol, genotyping and mass spectrometry (MS) methodology, and primary results were reported previously. Briefly, all patients were Polish Caucasians, unselected women with verified hormone receptor-positive breast cancer (median age at diagnosis: 55 years; range: 25–95 years) receiving the standard treatment of 20 mg of tamoxifen daily for at least 1 month to ensure the steady-state plasma concentration of tested compounds. The median time between the initiation of tamoxifen treatment and blood sample collection was 21.5 months. Six patients had plasma drug concentrations <10% of the mean tamoxifen level across all patients and were excluded from further analyses.
(§2) As previously described, whole blood samples were collected at study enrollment, and plasma was immediately separated and stored at −80 °C until ultraperformance liquid chromatography tandem MS (UPLC-MS/MS) analysis. For all samples, plasma concentrations of tamoxifen and its 14 key metabolites were measured, including the following: NDM-Tam, (Z)-endoxifen, (E)-endoxifen, 3-OH-NDM-Tam, 4′-OH-NDM-Tam, (Z)-4-OH-Tam, 3-OH-Tam, 4′-OH-Tam, (Z)-α-OH-Tam, (E)-α-OH-Tam, Tam-N-oxide, Tam-N-β-D-glucuronide (Tam-N-gluc), (E/Z)-4-OH-NDM-Tam-β-D-glucuronide ((E/Z)-4-OH-NDM-Tam-gluc), and (E)-4-OH-Tam-O-β-D-glucuronide ((E)-4-OH-Tam-O-gluc). All of the above compounds and deuterated internal standards (Tam-d5, NDM-Tam-d5, and (Z)-4-OH-Tam-d5) were from Toronto Research Chemicals (North York, ON, Canada). Details of the sample preparation method, MS/MS parameters, and linearity ranges of the metabolite standards are included in File S1.
Sample preparation was carried out as described by Dahmane et al., with slight modifications, including protein precipitation by acetonitrile. Briefly, 100 µl of plasma was mixed with 300 µl of ISs solution (3.3 ng/ml of Tam-d5, 3.3 ng/ml of NDM-Tam-d5 and 4.2 ng/ml of (Z)-4-OH-Tam-d5) in acetonitrile. After vortexing and centrifugation (10 min; 18,000× g), 350 µl of clear supernatant was evaporated under nitrogen in 55°C. Finally, samples were dissolved in 100 µl of 10 mM ammonium formate in 50% methanol.
For sample separation, an Acquity UPLC system equipped with Acquity BEH Shield RP18 column (100 × 2.1 mm, 1.7 µm particle size) (Waters, Milford, MA, USA) was used. The column was thermostatted at 70°C. The mobile phase A consisted of ultrapure water, and phase B consisted of 0.1% formic acid in acetonitrile. The flow rate was 0.6 ml/min and the total run time was 16 min per sample under nonlinear gradient condition as follows: 10% to 80% B for 12 min (concave curve), 80% B for 2 min, 95% B for 1 min and 10% B for 1 min.
Detection was performed on a triple quadrupole mass spectrometer Xevo TQ-MS (Waters) in the positive ion electrospray ionization mode, with general mass spectrometry (MS) parameters as follows: capillary voltage, 3 kV; desolvation temperature, 550°C; desolvation gas (nitrogen) flow, 1000 l/h; cone gas (nitrogen) flow, 100 l/h and collision gas (argon) flow, 0.15 ml/min. Waters QuanLynx software was used for chromatograms integration and quantitation.
All compounds were divided between two calibration sets, A and B (Table 1), based on characteristic ions and retention times. Each set consisted of six calibration samples (CAL1 to CAL6) prepared by spiking blank plasma sample by an appropriate amount of analyte. The calibration range was chosen based on others’ published data, expected steady-state plasma metabolite concentration and our previous measurements. Linear calibration curves were obtained by plotting response (obtained by dividing peak area of analyte by peak area of internal standard) against calibration point of known concentration. […]

[5] = Metabolic ratio (MR): (Z)-endoxifen plasma concentration divided by the sum of concentrations of tamoxifen and other measured metabolites; type: in vivo, human; conditions: for Metabolic Ratio of (Z)-endoxifen, Mean ± SD: tamoxifen 20 mg daily, plasma; for Metabolic ratio (MR): individual tamoxifen-treated breast cancer patient samples
Text: We previously reported that the CYP2D6 genotype accounts for 51% of the variability in tamoxifen metabolism directed toward endoxifen production, expressed as the metabolic ratio (MR) of (Z)-endoxifen (the major isomer of endoxifen produced from tamoxifen) plasma concentration divided by the sum of concentrations of tamoxifen and other measured metabolites. The metabolic ratio is more useful than (Z)-endoxifen concentration alone, because it accounts for omitted drug doses or the concomitant use of CYP2D6 inhibitors. Using simple linear regression, we estimated that an MR value of 0.0146 corresponds to the predefined 6 ng mL^−1 (Z)-endoxifen efficacy threshold level. Here, we adopted a genome-wide association study (GWAS) approach to search for new DNA variants that could assist in the prediction of impaired tamoxifen metabolism in Polish patients with breast cancer treated with the standard daily dose (20 mg).
as §1, §2
Genomic DNA samples extracted from blood were genotyped for CYP2D6 alleles, according to the nomenclature described at https://www.parmvar.org/gene/CYP2D6 [10], as previously reported. Briefly, individual TaqMan allelic discrimination assays were performed for 11 SNPs, and 3 TaqMan Gene Copy Number Assays were conducted to assess gene deletion or duplication (Thermo Fisher, Waltham, MA, USA). Each CYP2D6 allele was assigned to one of four phenotypic categories, according to its associated enzyme function. PM (nonfunctional) alleles included CYP2D6*3, *4, *5, *6, and *7; IM (reduced-function) alleles were CYP2D6*9, *10, *17, and *41; NM (WT; fully functional) alleles included CYP2D6*1 and *2; and UM (increased-function) alleles were duplicates of NM variants, such as CYP2D6*1XN and *2XN. For the current study, patients were categorized into two groups of CYP2D6 functional activity: 1) Impaired metabolizers, who were presumed to have impaired metabolism of tamoxifen toward endoxifen (with CYP2D6 diplotypes PM/PM, IM/PM, IM/IM, NM/PM, and NM/IM), and 2) normal metabolizers, with predicted therapeutically effective tamoxifen metabolism (carrying CYP2D6 diplotypes NM/NM and NM/UM).

[6] = test system: breast cancer; conditions: cited from earlier work

Compound: 4-hydroxy-tamoxifen [4-OH-Tam]
- antiestrogenic potency relative to other tamoxifen metabolites and the parent drug [1]: up to 100 fold

- (Z)-endoxifen steady-state plasma concentration, Mean ± SD ([4]; CYP2D6 genotype IM/IM (n=3)): 3.05 ± 1.91 ng/mL
- (Z)-endoxifen steady-state plasma concentration, Mean ± SD ([4]; CYP2D6 genotype IM/PM (n=12)): 2.22 ± 0.87 ng/mL
- (Z)-endoxifen steady-state plasma concentration, Mean ± SD ([4]; CYP2D6 genotype NM/IM (n=44)): 5.60 ± 3.26 ng/mL
- (Z)-endoxifen steady-state plasma concentration, Mean ± SD ([4]; CYP2D6 genotype NM/NM (n=90)): 7.26 ± 3.18 ng/mL
- (Z)-endoxifen steady-state plasma concentration, Mean ± SD ([4]; CYP2D6 genotype NM/PM (n=99)): 4.85 ± 2.46 ng/mL
- (Z)-endoxifen steady-state plasma concentration, Mean ± SD ([4]; CYP2D6 genotype NM/UM (n=18)): 6.96 ± 3.75 ng/mL
- (Z)-endoxifen steady-state plasma concentration, Mean ± SD ([4]; CYP2D6 genotype PM/PM (n=21)): 1.79 ± 0.66 ng/mL
- Metabolic Ratio of (Z)-endoxifen, Mean ± SD ([5]; CYP2D6 genotype IM/IM (n=3)): 0.0063 ± 0.0022
- Metabolic Ratio of (Z)-endoxifen, Mean ± SD ([5]; CYP2D6 genotype IM/PM (n=12)): 0.0047 ± 0.0014
- Metabolic Ratio of (Z)-endoxifen, Mean ± SD ([5]; CYP2D6 genotype NM/IM (n=44)): 0.0125 ± 0.0054
- Metabolic Ratio of (Z)-endoxifen, Mean ± SD ([5]; CYP2D6 genotype NM/NM (n=90)): 0.0185 ± 0.0057
- Metabolic Ratio of (Z)-endoxifen, Mean ± SD ([5]; CYP2D6 genotype NM/PM (n=99)): 0.0108 ± 0.0043
- Metabolic Ratio of (Z)-endoxifen, Mean ± SD ([5]; CYP2D6 genotype NM/UM (n=18)): 0.0201 ± 0.0076
- Metabolic Ratio of (Z)-endoxifen, Mean ± SD ([5]; CYP2D6 genotype PM/PM (n=21)): 0.0037 ± 0.0013
Compound: CC/C(=C(\c1ccc(O)cc1)c1ccc(OCCNC)cc1)c1ccccc1 [(Z)-endoxifen, (Z)-4-hydroxy-N-desmethyl-tamoxifen]
- MR value corresponding to the (Z)-endoxifen efficacy threshold level [2]: 0.0146
- proportion of patients not achieving the beneficial threshold level of plasma (Z)-endoxifen [3]: over 30%
- Metabolic ratio (MR) ([5]; CYP2D6 genotype IM/PM): 0.00274 and 0.00459 and 0.0029 and 0.00363
- Metabolic ratio (MR) ([5]; CYP2D6 genotype NM/IM): 0.00647 and 0.0081 and 0.00839 and 0.01209 and 0.0056 and 0.01085 and 0.0096 and 0.00997 and 0.01604
- Metabolic ratio (MR) ([5]; CYP2D6 genotype NM/NM): 0.01773 and 0.01628 and 0.0192 and 0.02007 and 0.01314 and 0.01689 and 0.01957 and 0.01357 and 0.0089 and 0.01713 and 0.01204 and 0.01768 and 0.01853 and 0.01753 and 0.01866 and 0.01752 and 0.01504 and 0.00404 and 0.01279 and 0.01592 and 0.01076 and 0.01005 and 0.01645
- Metabolic ratio (MR) ([5]; CYP2D6 genotype NM/PM): 0.01496 and 0.01155 and 0.00944 and 0.00815 and 0.01001 and 0.01495 and 0.00803 and 0.01657 and 0.01419 and 0.01098 and 0.0072 and 0.00801 and 0.01175 and 0.00523 and 0.00652 and 0.00522 and 0.00788 and 0.00603 and 0.00607 and 0.00605 and 0.01073
- Metabolic ratio (MR) ([5]; CYP2D6 genotype NM/UM): 0.013 and 0.01894 and 0.02933 and 0.01233
- Metabolic ratio (MR) ([5]; CYP2D6 genotype PM/PM): 0.00294 and 0.00405 and 0.0035 and 0.00163

Compound: CC/C(=C(\c1ccc(O)cc1)c1ccc(OCCNC)cc1)c1ccccc1 [endoxifen, 4-hydroxy-N-desmethyl-tamoxifen]
- minimal threshold level of endoxifen to achieve the desired treatment efficacy ([6]; large retrospective study, lowest quintile): > 5.97 ng/mL
- lower breast cancer recurrence rate relative to patients with lower endoxifen concentrations ([6]; patients with endoxifen concentration >5.97 ng mL^−1): 26%
- endoxifen efficacy threshold level ([6]; ref 30): 5.3 ng/mL
- endoxifen efficacy threshold level ([6]; ref 32): 3.36 ng/mL
- antiestrogenic potency relative to other tamoxifen metabolites and the parent drug [1]: up to 100 fold
